One series concerns LN229 GBM cells. Description: CCK8 cell proliferation assay, LN229. The settings on record: Homo sapiens, LN-229; LN229, CCK8, 72 h. Type of series: cell-based. The method, then:
(§1) Cell viability and drug cytotoxicity were determined by a CCK-8 kit (Cell Counting Kit-8, CK04-13, MD, USA) (CCK8, C0005, Target Molecule Corp., MA, USA) reagent. Cells were seeded 2 × 10^3 per well in the 96-well plate for 24 h, followed by treating at different concentrations of compounds for 72 h. Before the experiment, CCK8 was 10-fold diluted with the culture medium and then incubated with cells for 30 min. Finally, the OD was 450 nm absorbance and calculated for cell viability.
(Formazan colour is commonly taken as a measure of viable cells.)

Series [1] can be described thus: Brain distribution study, UPLC of plasma and brain tissue extract. Type of series: in vivo. As to conditions: mouse, ip, C57BL/6 mice, 360 mg/kg intraperitoneal. The protocol: The liquid chromatography was performed on an Acquity H class UPLC system (Waters Corp., Massachusetts, U.S.) equipped with an ACQUITY Premier PDA eλ detector (Waters Corp., Massachusetts, U.S.) with an autosampler temperature of 15 °C. Separation was performed at 25 °C on a Waters Acquity HSS T3 C18 column (2.1 mm × 100 mm, 1.8 μm particle size) with a gradient elution using A: water (containing 2 mM ammonium acetate and 0.1% formic acid) and B: acetonitrile as the mobile phase. The gradient program is as follows: 96% A (initial), 96% A (1 min), 65% A (7 min), 65% A (7.5 min), 96% A (8 min), and 96% A (12 min). The flow rate was set at 0.5 mL/min, and the injection volume was 3 μL. The UV wavelength was adjusted to 254 nm for compound 1 detection.
Following anesthesia of mice with isoflurane, blood samples were collected via a cardiac puncture. The blood was centrifuged at 2000g for 20 min at 4 °C to obtain plasma. Plasma samples were then mixed with an equal volume of 1 M zinc sulfate heptahydrate solution (cat. no. 221376, Sigma-Aldrich) and allowed to stand for 30 min. Subsequently, the mixture was centrifuged at 12,000g for 30 min at 4 °C, and the supernatant was collected for analysis. Brain tissues were homogenized using a Tenbroeck tissue grinder at a ratio of 5 μL of DMSO per mg of tissue. The homogenates were then centrifuged at 12,000g for 30 min at 4 °C, and the supernatant was collected for analysis.
Compound 1 was prepared in DMSO at a concentration of 180 mg/mL, and […] at 30 mg/mL. C57BL/6 mice were intraperitoneally injected with compound 1 at 360 mg/kg, TMZ at […], or DMSO at 2 μL/g as the control group. Mice were sacrificed by intraperitoneal injection after 30 min, and plasma as well as brain tissue extracts were collected following the aforementioned procedures.

For series [2], the system named is CT-2A-R astrocytoma cells. Description: Orthotopic CT-2A-R tumor model, IVIS. Type of series: in vivo, mouse. The settings on record: 50 mg/kg orally. The protocol:
Animals were imaged using an IVIS to monitor tumor growth and target expression changes. Initially, animals were anesthetized with isoflurane prior to imaging to minimize movement artifacts. D-luciferin (150 mg/kg) was then administered via an intraperitoneal injection. After 60 s, animals were positioned on the imaging platform, and images were acquired with a 10-s exposure. Experimental data were collected and quantified for fluorescence or bioluminescence signals by using Living Image software in the IVIS system. After each imaging session, animal ID, imaging parameters, and imaging time were recorded for subsequent analysis.
For orthotopic inoculation, CT-2A cells (1 × 10^5) or CT-2A-R (2 × 10^5) were suspended in 4 μL of DMEM and implanted into the brain of B6 mice. PT#3-R cells (5 × 10^5) were suspended in 4 μL of DMEM and implanted into the brain of SCID mice. After cell implantation, mice were monitored daily for survival, and their body weight was measured every 3 days starting from the seventh day. The oral vehicle consisted of 40% ethyl oleate, 12% lecithin, 20% propylene glycol, and 28% Triton X-100. Mice were administered 5 μL of vehicle per gram of body weight along with 50 mg/kg TMZ or a combination of TMZ and compound 1. Intraperitoneal injections were administered with DMSO (solvent control), TMZ (10 μg/kg), TMZ (10 μg/kg), and compound 1 (10 or 20 μg/kg). […]

A short description of series [3]: Adverse reactions in treated tumor-bearing mice. As to conditions: mice of the orthotopic tumor models. Type of series: in vivo. The protocol: For orthotopic inoculation, CT-2A cells (1 × 10^5) or CT-2A-R (2 × 10^5) were suspended in 4 μL of DMEM and implanted into the brain of B6 mice. PT#3-R cells (5 × 10^5) were suspended in 4 μL of DMEM and implanted into the brain of SCID mice. After cell implantation, mice were monitored daily for survival, and their body weight was measured every 3 days starting from the seventh day. The oral vehicle consisted of 40% ethyl oleate, 12% lecithin, 20% propylene glycol, and 28% Triton X-100. Mice were administered 5 μL of vehicle per gram of body weight along with 50 mg/kg TMZ or a combination of TMZ and compound 1. Intraperitoneal injections were administered with DMSO (solvent control), TMZ (10 μg/kg), TMZ (10 μg/kg), and compound 1 (10 or 20 μg/kg). Upon the natural death of the mice, brains were extracted and entrusted to BioTools for sectioning and HE staining.
Supplementary information VIII. Body weight changes in mice administered with vehicle, TMZ, and Compound 1 in vivo.
S-VIII-1. Body weight changes in mice administered with DMSO, TMZ, and Compound 1 intraperitoneally following orthotopic CT-2A tumor implantation .
S-VIII-2. Body weight changes in mice administered with vehicle, TMZ, and Compound 1 intraperitoneally following orthotopic CT-2AR tumor implantation.
S-VIII-3. […]

Another series has as its system PT#3-R GBM cells. Description: Orthotopic PT#3-R transplant model, survival and HE staining. Type of series: in vivo, mouse. The protocol:
For orthotopic inoculation, CT-2A cells (1 × 10^5) or CT-2A-R (2 × 10^5) were suspended in 4 μL of DMEM and implanted into the brain of B6 mice. PT#3-R cells (5 × 10^5) were suspended in 4 μL of DMEM and implanted into the brain of SCID mice. After cell implantation, mice were monitored daily for survival, and their body weight was measured every 3 days starting from the seventh day. […] […] […] Upon the natural death of the mice, brains were extracted and entrusted to BioTools for sectioning and HE staining.

In series [4] the test system is histones H3 and H4 in U87MGR GBM cells. The series is described as follows: Western blot of histone H3 and H4 acetylation. Type of series: cell-based, human. As to conditions: 10 μM, within 1 h. The method, then: The experimental procedure was performed as described in our previous study.[41] On the day prior to the experiment, […] cells were seeded into each well of a 6-well plate. The following day, the cells were washed twice with PBS and treated with 10 μM compound 1. The acetylation status of histones H3 and H4, DNA repair, and protein stability assay were assessed at 0–24 h post-treatment. The antibody models and dilution ratios used are detailed in Table S1. Protein image collection and quantification were done by the ChemiDoc Touch Imaging System (Cat. No. 12676029, Bio-Rad Laboratories, Inc., CA, USA).

Another series concerns T98G (MGMT-positive). Description: CCK8 cell proliferation assay, T98G. Type of series: cell-based. As to conditions: Homo sapiens, CCK8, 72 h. The protocol:
as §1

Where two headings read alike, the source gives them in different places.

In the case of `O=C(/C=C/c1ccc(CNC[C@H]2CN(c3ccc(N4CCOCC4)c(F)c3)C(=O)O2)cc1)NO` [compound 1, (S,E)-3-(4-((((3-(3-Fluoro-4-morpholinophenyl)-2-oxooxazolidin-5-yl)methyl)ami-no)methyl)phenyl)-N-hydroxyacrylamide], the values for the IC50 with LN229 GBM cells and with T98G (MGMT-positive) were 15.7 ± 0.93 µM and 30.6 ± 0.56 µM, respectively. In addition, the concentration at 30 min in series [1] (brain, read-out: Brain conc.) stood at 831 ng/mL; in series [1] (plasma, read-out: Plasma conc.), 656 ng/mL. Moreover, in series [1] (brain/plasma, 30 min, read-out: brain/plasma (B/P) ratio), the Kp at 0.5 h worked out at 1.27. Moreover, the “growth of orthotopic tumors (IVIS)” value in series [2] was “effectively inhibited the growth of orthotopic tumors”. Also, the “adverse reactions during the treatment period” value in series [3] is “without adverse reactions observed”. In the series with PT#3-R GBM cells (PT#3-R in SCID mice, 10 or 20 mg/kg with 10 mg/kg TMZ, intraperitoneal every 3 days from day 7), the “survival (Kaplan-Meier)” value is reported as “extend the survival rate”. Further, in the series on PT#3-R GBM cells (PT#3-R, post-mortem brain tissue sections), the “TMZ-resistant GBM cell growth in the brain (HE staining)” value is listed as “effective inhibition of TMZ-resistant GBM cell growth in the brain”. Further, in series [4], the “acetylation in histones H3 and H4” value is reported as “significant induction of acetylation”.

One may read the IC50 as the concentration at which inhibition is half-maximal. A low value points to inhibition by little substance.

(Values after publication PMC11831592, “Repurposing Linezolid in Conjunction with Histone Deacetylase Inhibitor Access in the Realm of Glioblastoma Therapies” (Journal of Medicinal Chemistry, 2025).)
